Measured values: the NIST ThermoML archive (doi:10.1016/j.jct.2011.12.030)

Details: Liquid, Vibrating tube method

COCC[N+]1(C)CCCC1.O=S(=O)([N-]S(=O)(=O)C(F)(F)F)C(F)(F)F
mass density [kg/m3]
Details	100 kPa	1000 kPa	10000 kPa	20000 kPa	40000 kPa	60000 kPa	80000 kPa	100000 kPa	120000 kPa
278.15 K	1474.2	1474.9	1480.8	1487	1498.6	1509.5	1519.8	1529.3	1538.3
298.15 K	1453.5	1454.1	1460.2	1466.9	1479.2	1490.6	1501.4	1511.4	1520.9
313.15 K	1439.1	1440.1	1446.5	1453.5	1466.4	1478.4	1489.4	1499.8	1509.6
333.15 K	1420.8	1421.6	1428.5	1435.9	1449.5	1462.2	1473.7	1484.6	1494.8
348.15 K	1407.3	1408	1415.4	1423.2	1437.5	1450.5	1462.5	1473.6	1484.2
373.15 K	1385.3	1385.7	1393.4	1401.8	1417.2	1430.9	1443.5	1455.2	1466.3
398.15 K	1363.2	1363.3	1372	1381	1397.4	1412	1425.4	1437.9	1449.6

CCOS(=O)(=O)[O-].CCn1cc[n+](C)c1 [1-ethyl-3-methylimidazolium ethyl sulfate]
mass density [kg/m3]
Details	100 kPa	1000 kPa	10000 kPa	20000 kPa	40000 kPa	60000 kPa	80000 kPa	100000 kPa	120000 kPa
278.15 K	1251.9	1252.2	1255.7	1259.5	1266.8	1273.7	1280.2	1286.5	1292.2
298.15 K	1237	1237.3	1241	1245	1252.6	1259.7	1266.5	1273.1	1279.3
313.15 K	1226.6	1227	1230.8	1235	1242.8	1250.3	1257.3	1264.1	1270.5
333.15 K	1213	1213.4	1217.4	1221.7	1230	1237.8	1245.2	1252.3	1259.1
348.15 K	1203.1	1203.6	1207.7	1212.3	1220.9	1228.9	1236.5	1243.8	1250.8
373.15 K	1187.3	1187.3	1191.8	1196.6	1205.8	1214.2	1222.2	1229.7	1237
398.15 K	1171.4	1171	1175.9	1181	1190.7	1199.7	1208.1	1216	1223.4
